# Patent publication US20220313650A1, “METHODS FOR TREATING NEURODEVELOPMENTAL DISORDERS” (The Broad Institute, Inc., priority 2019, published 2022)
# Entries after “also recorded” stand apart in the source; their conditions may differ.
# How the values were obtained:
# SK channels = test: SK current recording in TRN neurons; type: cell-based, mice; conditions: in the presence of LY379268
# Experimental: For conducting slice electrophysiology analysis, whole-cell patch-clamp recordings were performed using horizontal slices for the rebound bursting assays and angled-coronal thalamocortical slices for the synaptic optogenetics experiments (Agmon et al., 1991). 21-35 day old male C57BL6 mice and Ptchd1 Y/− (knockout) mice were used. Animals were transcardially perfused under isoflurane anesthesia with an ice-cold cutting solution (194 mM Sucrose, 30 mM NaCl, 4.5 mM KCl, 1.2 mM NaH2PO4, 10 mM Glucose, 2 mM MgCl2, 0.2 mM CaCl2, and 26 mM NaHCO3). Mice were then decapitated and the brains were carefully dissected out. Both cerebellum and olfactory bulb were removed from the brain and were placed and glued onto the stage of a Leica Vibratome with the ventral surface down and the pial surface towards the blade. […]
# The channel conductance of SK channels and low-threshold T-type Ca2+ channels at different holding membrane potentials ranging from −80 mV to −50 mV in the presence or absence of SK channel blockers was evaluated in order to further determine how the activation of mGluR2/3 in TRN neurons enhanced the rebound bursting.
# WT TRN neurons = test: Whole-cell patch-clamp rebound burst firing in acute brain slices, WT mice; type: cell-based
# Experimental: (§1) For conducting slice electrophysiology analysis, whole-cell patch-clamp recordings were performed using horizontal slices for the rebound bursting assays and angled-coronal thalamocortical slices for the synaptic optogenetics experiments (Agmon et al., 1991). 21-35 day old male C57BL6 mice and Ptchd1 Y/− (knockout) mice were used. Animals were transcardially perfused under isoflurane anesthesia with an ice-cold cutting solution (194 mM Sucrose, 30 mM NaCl, 4.5 mM KCl, 1.2 mM NaH2PO4, 10 mM Glucose, 2 mM MgCl2, 0.2 mM CaCl2, and 26 mM NaHCO3). Mice were then decapitated and the brains were carefully dissected out. Both cerebellum and olfactory bulb were removed from the brain and were placed and glued onto the stage of a Leica Vibratome with the ventral surface down and the pial surface towards the blade. 250 micron thick slices containing the TRN were then collected and recovered in regular artificial cerebrospinal fluid (aCSF; 119 mM NaCl, 2.3 mM KCl, 1 mM NaH2PO4; 11 mM Glucose, 1.3 mM MgCl2, 2.5 mM CaCl2), 26 mM NaHCO3) heated to 32° C. for 10 minutes and then at room temperature for at least 1 hr. All buffers were continuously bubbled with 95% O2/5% C02. Slices were then transferred to a submersion recording chamber where they were perfused with aCSF at a rate of 2 ml/min at room temperature. Patch recording pipettes were pulled using a Flaming/Brown micropipette puller (Sutter Instruments) and Borosilicate glass (KG33, King Precision Glass). The DC resistances were ˜4-6 MΩ. Potassium methanesulfonate based internal solution (140 mM KMeSO3; 10 mM KCl; 10 mM HEPES; 0.1 mM EGTA; 4 mM Mg-ATP; 0.2 mM Na-GTP; 10 mM hosphocreatine) was used. Neurons were visualized using infrared differential interference contrast (IR-DIC) microscopy (Olympus, BX51W1) with an upright microscope digital camera.
# The recordings were made with a microelectrode amplifier with bridge and voltage clamp modes of operation (Multiclamp 700B, Molecular Devices, San Jose, Calif., USA). Signals were low-pass filtered at 2 kHz and sampled at 10-20 kHz with a Digidata 1440A (Molecular Devices, San Jose, Calif., USA). Data were stored on a computer for subsequent off-line analysis. Cells with the series resistance (Rs, typically 8-12 MΩ) changed by >20% were excluded for data analysis. In addition, cells with Rs more than […] at any time during the recordings were discarded.
# TRN neurons = test: Spontaneous EPSC recordings from TRN neurons, WT mice; type: cell-based; conditions: LY379268 1 uM, with PTX
# Experimental: as §1, with “Patch recording pipettes were pulled using a Flaming/Brown micropipette puller (Sutter Instruments) and Borosilicate glass (KG33, King Precision Glass). The DC resistances were ˜4-6 MΩ. Potassium methanesulfonate based internal solution (140 mM KMeSO3; 10 mM KCl; 10 mM HEPES; 0.1 mM EGTA; 4 mM Mg-ATP; 0.2 mM Na-GTP; 10 mM hosphocreatine) was used. Neurons were visualized using infrared differential interference contrast (IR-DIC) microscopy (Olympus, BX51W1) with an upright microscope digital camera.” left out
compound,measurement,setting,value
"N[C@@]1(C(=O)O)COC2C(C(=O)O)C21 (stereo in doubt) [LY379268, (1R,4R,5S,6R)-4-Amino-2-oxabicyclo[3.1.0] hexane-4,6-dicarboxylic acid]","current mediated by SK (max outward currents, SK channel conductance)",SK channels,significantly increased
same,"rebound burst firing, occlusion experiment",WT TRN neurons; LY379268 applied in the presence of (after pretreatment with) ML337,no change in repetitive bursting; also recorded: occluded in the presence of ML337
same,number of rebound burst firings,"WT TRN neurons; WT TRN neurons, LY379268 1 μM, after somatic hyperpolarization pulse, holding potentials −80 mV to −50 mV",significant increase in the repetitive rebound bursting; also recorded: increase in the number of rebound burst firings; also recorded: Significant changes were detected in a membrane holding potentials between −70 mV and −60 mV; also recorded: Significant changes were detected at membrane holding potentials as indicated
same,frequency of sEPSCs,TRN neurons,significantly reduced the frequency
